Experiments:
Type in all cases: in vivo
[1] = system: wheat (Triticum aestivum); test: Test A postemergence, wheat; details: Postemergence; for Wheat plant response rating: 500 g ai/ha, visual injury vs untreated controls after approx. 10 days
Outline: (§1)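 Directed soil spray at planting gave the preemergence treatment, while foliar application to one- to two-leaf seedlings (2–10 cm) gave the postemergence one; pots held a loam and sand mixture and chemicals were carried in a non-phytotoxic solvent with surfactant.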

kochia (Bassia scoparia) [2] = test: Test A preemergence, kochia; details: Preemergence; for Plant response rating, Kochia: 0 to 100 scale (0 no effect, 100 complete control); for Kochia plant response rating: 125 g ai/ha, visual injury on 0 to 100 scale (0 no effect, 100 complete control), approximately 10 days
Outline: (§2)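 After sowing into a sand-amended loam, pots for the preemergence test were treated by spraying directly onto soil. In parallel, seedlings at the one- to two-leaf stage and 2 to 10 cm tall were treated postemergence with the identical surfactant-containing formulation.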

[3] = system: pigweed (Amaranthus retroflexus); test: Test A postemergence, pigweed; details: Postemergence; for Pigweed plant response rating: 500 g ai/ha, visual injury vs untreated controls after approx. 10 days
Outline: as §2

[4] = system: Foxtail, Giant (giant foxtail, Setaria faberi); test: Test A postemergence, Foxtail, Giant; details: Postemergence; for Foxtail, Giant plant response rating: 500 g ai/ha, visual injury vs untreated controls after approx. 10 days
Outline: as §2

corn (Zea mays) = test: Test A postemergence, corn; details: Postemergence; for Corn plant response rating: 500 g ai/ha, visual injury vs untreated controls after approx. 10 days
Outline: as §2

[5] = system: galium (catchweed bedstraw, Galium aparine); test: Test A postemergence, galium; details: Postemergence; for Galium plant response rating: 500 g ai/ha, visual injury vs untreated controls after approx. 10 days
Outline: as §1

[6] = system: barnyardgrass (Echinochloa crus-galli); test: Test A postemergence, barnyardgrass; details: Postemergence; for Barnyardgrass plant response rating: 500 g ai/ha, visual injury vs untreated controls after approx. 10 days
Outline: as §1

[7] = system: ragweed (common ragweed, Ambrosia artemisiifolia); test: Test A preemergence, ragweed; details: Preemergence; for Plant response rating, Ragweed: 0 to 100 scale (0 no effect, 100 complete control); for Ragweed plant response rating: 125 g ai/ha, visual injury on 0 to 100 scale (0 no effect, 100 complete control), approximately 10 days
Outline: as §2

kochia (Bassia scoparia) [8] = test: Test A postemergence, kochia; details: Postemergence; for Kochia plant response rating: 500 g ai/ha, visual injury vs untreated controls after approx. 10 days
Outline: as §2

[9] = system: blackgrass (Alopecurus myosuroides); test: Test A postemergence, blackgrass; details: Postemergence; for Blackgrass plant response rating: 500 g ai/ha, visual injury vs untreated controls after approx. 10 days
Outline: as §2

[10] = system: Foxtail, Giant (giant foxtail, Setaria faberi); test: Test A preemergence, Foxtail, Giant; details: Preemergence; for Plant response rating, Foxtail, Giant: 0 to 100 scale (0 no effect, 100 complete control); for Foxtail, Giant plant response rating: 125 g ai/ha, visual injury on 0 to 100 scale (0 no effect, 100 complete control), approximately 10 days
Outline: as §2

[11] = system: barnyardgrass (Echinochloa crus-galli); test: Test A preemergence, barnyardgrass; details: Preemergence; for Plant response rating, Barnyardgrass: 0 to 100 scale (0 no effect, 100 complete control); for Barnyardgrass plant response rating: 125 g ai/ha, visual injury on 0 to 100 scale (0 no effect, 100 complete control), approximately 10 days
Outline: as §2

[12] = system: Ryegrass, Italian (Italian ryegrass, Lolium multiflorum); test: Test A postemergence, Ryegrass, Italian; details: Postemergence; for Ryegrass, Italian plant response rating: 500 g ai/ha, visual injury vs untreated controls after approx. 10 days
Outline: as §2

[13] = system: Ryegrass, Italian (Italian ryegrass, Lolium multiflorum); test: Test A preemergence, Ryegrass, Italian; details: Preemergence; for Plant response rating, Ryegrass, Italian: 0 to 100 scale (0 no effect, 100 complete control); for Ryegrass, Italian plant response rating: 125 g ai/ha, visual injury on 0 to 100 scale (0 no effect, 100 complete control), approximately 10 days
Outline: as §2

[14] = system: ragweed (common ragweed, Ambrosia artemisiifolia); test: Test A postemergence, ragweed; details: Postemergence; for Ragweed plant response rating: 500 g ai/ha, visual injury vs untreated controls after approx. 10 days
Outline: as §2

[15] = system: pigweed (Amaranthus retroflexus); test: Test A preemergence, pigweed; details: for Plant response rating, Pigweed: 0 to 100 scale (0 no effect, 100 complete control); for Pigweed plant response rating: 125 g ai/ha, visual injury on 0 to 100 scale (0 no effect, 100 complete control), approximately 10 days
Outline: as §1

[16] = 31 g ai/ha, visual injury on 0 to 100 scale (0 no effect, 100 complete control), approx. 10 days
[17] = 125 g ai/ha, 0 to 100 scale (0 no effect, 100 complete control)
[18] = 31 g ai/ha, visual injury, approx. 10 days
[19] = 0 to 100 scale (0 no effect, 100 complete control)

Row | Structure (SMILES) | Plant response rating, Wheat [1, 16] | Plant response rating, Wheat [1, 17] | Plant response rating, Kochia (kochia (Bassia scoparia) [2]; [18]) | Kochia plant response rating (kochia (Bassia scoparia) [2]) | Plant response rating, Pigweed [3, 16] | Plant response rating, Pigweed [3, 17] | Plant response rating, Foxtail, Giant [4, 16] | Plant response rating, Foxtail, Giant [4, 17] | Plant response rating, Corn (corn (Zea mays); [17]) | Plant response rating, Galium [5, 17] | Plant response rating, Barnyardgrass [6, 17] | Ragweed plant response rating [7] | Plant response rating, Kochia (kochia (Bassia scoparia) [8]; [17]) | Plant response rating, Blackgrass [9, 17] | Foxtail, Giant plant response rating [10] | Barnyardgrass plant response rating [11] | Plant response rating, Ryegrass, Italian [12, 17] | Ryegrass, Italian plant response rating [13] | Plant response rating, Ragweed [14, 17] | Pigweed plant response rating [15] | also measured
1 | Cc1cc(C)c(N(S(=O)(=O)C(F)(F)F)S(=O)(=O)C(F)(F)F)cc1C(=O)N1CCC(C#N)CC1 [Compound 161] | 0 | 0 | 30 | 90 | 70 | 80 | 0 | 20 | 50 | 90 | 80 | 90 | 50 | 0 | 80 | 100 | 20 | 100 | 70 | 100 | Plant response rating, Corn (corn (Zea mays); [16]): 10; Plant response rating, Galium [5, 16]: 30; Plant response rating, Barnyardgrass [6, 16]: 40; Plant response rating, Ragweed [7, 18]: 90; Plant response rating, Kochia (kochia (Bassia scoparia) [8]; [16]): 10; Plant response rating, Blackgrass [9, 16]: 0; Plant response rating, Foxtail, Giant [10, 18]: 40; Plant response rating, Barnyardgrass [11, 18]: 20; Plant response rating, Ryegrass, Italian [12, 16]: 20; Plant response rating, Ryegrass, Italian [13, 18]: 70; Plant response rating, Ragweed [14, 16]: 40; Plant response rating, Pigweed [15, 18]: 70
2 | Cc1cc(C)c(C(=O)N2CCC(C#N)CC2)cc1NS(=O)(=O)C(F)(F)F [Compound 162] | 30 | 50 | 30 | 40 | 50 | 60 | 10 | 30 | 20 | 100 | 80 | 30 | 10 | 20 | 90 | 60 | 30 | 70 | 60 | 100 | Plant response rating, Corn (corn (Zea mays); [16]): 20; Plant response rating, Galium [5, 16]: 80; Plant response rating, Barnyardgrass [6, 16]: 40; Plant response rating, Ragweed [7, 18]: 0; Plant response rating, Kochia (kochia (Bassia scoparia) [8]; [16]): 10; Plant response rating, Blackgrass [9, 16]: 20; Plant response rating, Foxtail, Giant [10, 18]: 100; Plant response rating, Barnyardgrass [11, 18]: 0; Plant response rating, Ryegrass, Italian [12, 16]: 0; Plant response rating, Ryegrass, Italian [13, 18]: 40; Plant response rating, Ragweed [14, 16]: 60; Plant response rating, Pigweed [15, 18]: 100
3 | Cc1cc(C)c(C2=NOC3(CCC(C)(C)CC3)C2)cc1NS(=O)(=O)C(F)(F)F [Compound 163] |  | 0 |  | 0 |  | 60 |  | 0 | 0 | 70 | 0 | 20 | 10 | 20 | 50 | 90 | 0 | 80 | 0 | 50 | Wheat plant response rating [1, 19]: 0; Plant response rating, Kochia (kochia (Bassia scoparia) [2]; 500 g ai/ha): 80; Pigweed plant response rating [3, 19]: 80; Foxtail, Giant plant response rating [4, 19]: 10; Corn plant response rating (corn (Zea mays); [19]): 60; Galium plant response rating [5, 19]: 90; Barnyardgrass plant response rating [6, 19]: 80; Plant response rating, Ragweed ([7]; 500 g ai/ha): 60; Kochia plant response rating (kochia (Bassia scoparia) [8]; [19]): 60; Blackgrass plant response rating [9, 19]: 30; Plant response rating, Foxtail, Giant ([10]; 500 g ai/ha): 90; Plant response rating, Barnyardgrass ([11]; 500 g ai/ha): 100; Ryegrass, Italian plant response rating [12, 19]: 30; Plant response rating, Ryegrass, Italian ([13]; 500 g ai/ha): 100; Ragweed plant response rating [14, 19]: 30; Plant response rating, Pigweed ([15]; 500 g ai/ha): 100
4 | Cc1cc(C)c(N(S(=O)(=O)C(F)(F)F)S(=O)(=O)C(F)(F)F)cc1C(=O)N(C)CC1CC1 [Compound 169] |  | 0 |  | 0 |  | 40 |  | 10 | 50 | 80 | 40 | 40 | 20 | 0 | 20 | 30 | 10 | 50 | 60 | 60 | Wheat plant response rating [1, 19]: 0; Plant response rating, Kochia (kochia (Bassia scoparia) [2]; 500 g ai/ha): 30; Pigweed plant response rating [3, 19]: 50; Foxtail, Giant plant response rating [4, 19]: 40; Corn plant response rating (corn (Zea mays); [19]): 90; Galium plant response rating [5, 19]: 90; Barnyardgrass plant response rating [6, 19]: 90; Plant response rating, Ragweed ([7]; 500 g ai/ha): 80; Kochia plant response rating (kochia (Bassia scoparia) [8]; [19]): 50; Blackgrass plant response rating [9, 19]: 20; Plant response rating, Foxtail, Giant ([10]; 500 g ai/ha): 90; Plant response rating, Barnyardgrass ([11]; 500 g ai/ha): 100; Ryegrass, Italian plant response rating [12, 19]: 30; Plant response rating, Ryegrass, Italian ([13]; 500 g ai/ha): 100; Ragweed plant response rating [14, 19]: 90; Plant response rating, Pigweed ([15]; 500 g ai/ha): 80
5 | Cc1c(C(=O)N2CCOCC2)cc(N(S(=O)(=O)C(F)(F)F)S(=O)(=O)C(F)(F)F)c(C)c1F [Compound 174] | 0 | 0 | 40 | 80 | 70 | 90 | 0 | 0 | 20 | 80 | 60 | 90 | 30 | 0 | 90 | 80 | 0 | 60 | 90 | 100 | Plant response rating, Corn (corn (Zea mays); [16]): 0; Plant response rating, Galium [5, 16]: 50; Plant response rating, Barnyardgrass [6, 16]: 0; Plant response rating, Ragweed [7, 18]: 30; Plant response rating, Kochia (kochia (Bassia scoparia) [8]; [16]): 10; Plant response rating, Blackgrass [9, 16]: 0; Plant response rating, Foxtail, Giant [10, 18]: 30; Plant response rating, Barnyardgrass [11, 18]: 10; Plant response rating, Ryegrass, Italian [12, 16]: 0; Plant response rating, Ryegrass, Italian [13, 18]: 40; Plant response rating, Ragweed [14, 16]: 70; Plant response rating, Pigweed [15, 18]: 90
